Blank lines part the entries; values can stand above or below the compound they belong to.
Assays:
Rat Aldose Reductase = Rat Aldose Reductase (Rattus norvegicus, UniProt P07943); experiment: Rat Aldose Reductase Inhibition; assay type: biochemical
Text: Biophysical Chemistry, 8 (1978) 81-85; P. F. Kador, L. O. Merola and J. H
Kinoshita Documenta Ophthamologica, 18 (1979) 117.

[1] = test system: galactitol levels in the lenses; experiment: galactitol levels in lenses of galactose-fed rats at Day 32; assay type: in vivo, rat; set-up: average galactitol levels in lenses: unit not given here; details: for average galactitol levels in lenses: Day 32
Text: The compounds were formulated in ground Purina Rodent Laboratory Chow, Number 5001, containing 30% galactose.
The galactose control group (twelve rats, twenty-four eyes) were fed ground Purina Rodent Laboratory Chow, No. 5001 containing 30% by weight galactose. The six test compound groups (twelve rats, twenty-four eyes per group) were fed the same 30% galactose chow except that the chow was formulated to deliver […] of the indicated test compound (see Table IV).

[2] = test system: cataractogenesis in diabetic rats; experiment: cataractous changes in streptozotocin diabetic rats; assay type: in vivo, male albino rats; details: 15 weeks
Description: (§1) The purpose is to evaluate the efficacy of the racemic 2-fluoro compound (L), an aldose reductase inhibitor, for inhibiting cataractogenesis and nerve conduction deficit in diabetic rats.
(§2) Diabetes was induced in male albino rats by the intravenous injection of 50 mg/kg streptozotocin. The diabetic state was verified by measuring the blood glucose level in each animal before and after injection. […] A fourth group consisted of non-diabetic and otherwise normal rats which remained untreated. Treatments were given once daily by oral […], and continued through the day prior to sacrifice of the animal.
(§3) Each animal was weighed on a weekly basis. Both lenses of each animal were examined by ophthalmoscope periodically and any cataractous changes were graded and noted. At the end of 15 weeks, each animal was anesthetized using pentobarbital and the nerve conduction velocities of the sciatic nerve were measured. After an animal was sacrificed, the sciatic nerve and other tissues and organs were taken, weighed, and frozen for future biochemical analyses.
Cataractous changes were graded on a scale of 0 to 4; 0 denoting a normal looking lens with no changes and 4 denoting opacification involving the whole lens.

Human Aldose Reductase = Human Aldose Reductase (Homo sapiens, UniProt P15121); experiment: Human Aldose Reductase Inhibition; assay type: biochemical; details: for activity against human aldose reductase as compared to rat aldose reductase: human vs rat; for more active against human aldose reductase than the Sarges resolved compound: relative to Sarges resolved
[3] = test system: nerve conduction velocities of the sciatic nerve; experiment: Nerve conduction study in diabetic rats; assay type: in vivo, male albino rats; details: for nerve conduction velocity as a percent of normal, first inflection / nerve conduction velocity as a percent of normal, first peak / nerve conduction velocity as a percent of normal, second inflection / nerve conduction velocity as a percent of normal, second peak: 15 weeks
Description: as §1, §2, §3

IC50 (Rat Aldose Reductase): 150 nM
inhibition at 100 µM (Human Aldose Reductase; 10^-4, human, read-out: In vitro Aldose Reductase Inhibition): 100%
inhibition at 10 µM (Human Aldose Reductase; 10^-5, human, read-out: In vitro Aldose Reductase Inhibition): 88%
inhibition at 1 µM (Human Aldose Reductase; 10^-6, human, read-out: In vitro Aldose Reductase Inhibition): 81%
inhibition at 0.1 µM (Human Aldose Reductase; 10^-7, human, read-out: In vitro Aldose Reductase Inhibition): 53%
inhibition at 0.01 µM (Human Aldose Reductase; 10^-8, human, read-out: In vitro Aldose Reductase Inhibition): 18%
IC50 (Human Aldose Reductase; human): 91 nM
activity against human aldose reductase as compared to rat aldose reductase (Human Aldose Reductase): as active or more active
more active against human aldose reductase than the Sarges resolved compound (Human Aldose Reductase): 7 X
Compound: O=C1NC(=O)C2(N1)c1ccccc1-c1ccc(F)cc12 (racemic) [Compound L, dl-Spiro(2-fluorofluoren-9,4'-imidazolidine)-2',5'-dione]
average galactitol levels in lenses ([1]; 4 Mg/Kg/day): 6.274
average galactitol levels in lenses ([1]; 8 Mg/Kg/day): 5.074
prevention of lens opacification in diabetic rats ([2]; 8 mg/kg once daily oral): effective in preventing opacification of the lens
nerve conduction velocity as a percent of normal, first inflection ([3]; 8 mg/kg once daily oral): 93.3%
nerve conduction velocity as a percent of normal, first peak ([3]; 8 mg/kg once daily oral): 88.2%
nerve conduction velocity as a percent of normal, second inflection ([3]; 8 mg/kg once daily oral): 87.4%
nerve conduction velocity as a percent of normal, second peak ([3]; 8 mg/kg once daily oral): 85.0%
statistical significance of improvement in nerve conduction ([3]; 8 mg/kg, by comparison to the untreated diabetic rats): significant

Compound: O=C1NC(=O)C2(CCOc3ccc(F)cc32)N1 (racemic) [Sarges Racemic, dl-spiro-(6-fluorochroman-4,4'-imidazolidine)-2',5'-dione, reference compound]
average galactitol levels in lenses ([1]; 4 Mg/Kg/day): 9.238
average galactitol levels in lenses ([1]; 8 Mg/Kg/day): 9.107
prevention of lens opacification in diabetic rats ([2]; 16 mg/kg once daily oral, 30 lenses): all appeared normal
nerve conduction velocity as a percent of normal, first inflection ([3]; 16 mg/kg once daily oral): 88.6%
nerve conduction velocity as a percent of normal, first peak ([3]; 16 mg/kg once daily oral): 83.9%
nerve conduction velocity as a percent of normal, second inflection ([3]; 16 mg/kg once daily oral): 82.4%
nerve conduction velocity as a percent of normal, second peak ([3]; 16 mg/kg once daily oral): 79.1%

IC50 (Rat Aldose Reductase): 44 nM
In vitro Aldose Reductase Inhibition (Human Aldose Reductase; 10^-5, human): 81
In vitro Aldose Reductase Inhibition (Human Aldose Reductase; 10^-6, human): 71
In vitro Aldose Reductase Inhibition (Human Aldose Reductase; 10^-7, human): 64
In vitro Aldose Reductase Inhibition (Human Aldose Reductase; 10^-8, human): 35
IC50 (Human Aldose Reductase; human): 52 nM
activity against human aldose reductase as compared to rat aldose reductase (Human Aldose Reductase): as active or more active
more active against human aldose reductase than the Sarges resolved compound (Human Aldose Reductase): 12 X
Compound: O=C1NC(=O)C2(N1)c1cc(F)ccc1-c1ccc(F)cc12 [M, Spiro-[2,7-difluorofluoren-9,4'-imidazolidine]-2',5'-dione]
average galactitol levels in lenses ([1]; 4 Mg/Kg/day): 2.560
potency relative to the 2-fluoro compound ([1]; 4 and 8 Mg/Kg/day): more potent
average galactitol levels in lenses ([1]; 8 Mg/Kg/day): 1.399

From patent US4540700A, “Treatment of diabetic complications with certain spiro-imidazolidine-diones” (Alcon Laboratories, Inc., priority 1984, dated 1985)
